Source: PubChem BioAssay (NCI)
Values joined by “and” are separate entries in the source; they are usually repeats but may differ in a detail not shown here. Equal entries are not always repeated.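 Compound exposure: 48 hours, 5 concentrations, 96-well plates. GI50 is the concentration that inhibits growth by half. TGI marks complete inhibition of growth.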

How the values were obtained:
Assay in all cases: NCI tumour cell line growth inhibition, 48 h
[1] = system: DLD-1 colon
[2] = system: DMS 273 small cell lung
[3] = system: KM20L2 colon
[4] = system: LXFL 529 NSCLC
[5] = system: M19-MEL melanoma
[6] = system: RXF-631 renal
[7] = system: SNB-78 CNS
[8] = system: XF 498 CNS
[9] = system: MDA-N
[10] = system: P388 leukemia
[11] = system: P388/ADR leukemia

Structure (SMILES) | TGI [1] | TGI [2] | TGI [3] | TGI [4] | TGI [5] | TGI [6] | TGI [7] | TGI [8] | TGI [9] | further results
CC(C)C1CC[C@@H](C)C[C@@]1(O)CC(N)=O (stereo partly drawn) | > 100 µM | > 100 µM | > 100 µM | > 100 µM | > 100 µM | > 100 µM | > 100 µM | 0.856 µM |  | 
O=[N+]([O-])O.[Cu+2].[NH-]CC[NH-].[NH-]CC[NH-] |  |  |  |  |  |  |  |  | > 10 µM | GI50 [9]: > 10 µM
N#CC(NC12CC3CC(CC(C3)C1)C2)c1ccc2c(c1)OCO2 (stereo not drawn) |  |  |  |  |  |  |  |  | > 100 µM | 
COc1ccc(Br)c(N/N=C2\CCCNC2=O)c1 | > 100 µM | > 100 µM | > 100 µM | > 100 µM | > 100 µM | > 100 µM | > 100 µM | > 100 µM |  | 
COc1ccc2n[se]nc2c1 | > 100 µM | > 100 µM | > 100 µM | > 100 µM |  | > 100 µM | > 100 µM | > 100 µM |  | 
COC(=O)C1(C)CCC(c2ccc(C)cc2)=C(CC(=O)O)C1 (stereo not drawn) |  |  |  |  |  |  |  |  | > 100 µM | 
O=C([CH-]C(=O)c1ccccc1)c1ccccc1.O=C([CH-]C(=O)c1ccccc1)c1ccccc1.[La+3].[OH-].[OH3+] |  |  | 68.7 µM |  |  |  |  |  |  | GI50 [3]: 22.4 µM
COC1CC(OS(=O)(=O)c2ccc([N+](=O)[O-])cc2)C(OC(=O)c2ccccc2)C(C)O1 (stereo not drawn) | > 100 µM | > 100 µM | > 100 µM | > 100 µM | > 100 µM | > 100 µM | > 100 µM | > 100 µM |  | 
CN(C)CC/C(=N\Nc1ccc([N+](=O)[O-])cc1)c1ccccc1 | 27.2 µM | 22.3 µM | 15.2 µM | 19.3 µM |  |  | 20 µM |  |  | 
CCOc1ccc2c(c1)[n+]([O-])c(-c1ccc(Cl)cc1)c(N)[n+]2[O-] | > 100 µM | > 100 µM | > 100 µM | > 100 µM |  |  | > 100 µM |  |  | 
Cc1cc(O)c(C(C)C)cc1S(=O)(=O)O (tested in a mixture with another compound) | > 100 µM | > 100 µM | > 100 µM | > 100 µM | > 100 µM |  | > 100 µM |  |  | 
CN1C(=Nc2ccccc2)SC1=Nc1ccccc1 | > 100 µM | > 100 µM |  | > 100 µM | 65.2 µM |  | > 100 µM | 73.3 µM |  | 
Oc1c(C(Nc2cccc3cccnc23)c2ccccc2)ccc2cccnc12 (stereo not drawn) |  | > 100 µM | > 100 µM | > 100 µM | > 100 µM |  |  |  |  | 
COc1cc(C[C@H]2c3cc(OC)c(OC)cc3CCN2C)c(Oc2cc3c(cc2OC)-c2c(OC)c(OC)cc4c2[C@H](C3)N(C)CC4)cc1OC | 40.8 µM and 28.3 µM | 27.6 µM and 28.1 µM | 13.5 µM and 7.75 µM | 23.6 µM | 16.8 µM and 24.6 µM | 19.8 µM |  | 16.4 µM and 16.3 µM | 13.1 µM | GI50 [2]: 14.6 µM; GI50 [3]: 2.32 µM; GI50 [5]: 11.9 µM; TGI [10]: 22 µM; TGI [11]: 27.9 µM; GI50 [8]: 6.8 µM
COc1ccc2nc3cccc([N+](=O)[O-])c3c(NCCCCCC(=O)O)c2c1 |  |  |  |  |  |  |  |  | 0.117 µM | GI50 [9]: 0.0263 µM
CCC(C)(CC(C)(C)C(=O)NCC(=O)NC(Cc1ccccc1)C(=O)NC(Cc1ccccc1)C(=O)NCC(=O)NC1CC(OC2CC(O)(C(=O)CO)Cc3c(O)c4c(c(O)c32)C(=O)c2c(OC)cccc2C4=O)OC(C)C1O)C(=O)NCC(C)O (stereo not drawn) |  |  |  |  |  |  |  |  | > 150 µg/mL | GI50 [9]: 120 µg/mL
CCOc1ccccc1N1C(=O)C(=O)C(c2nc3ccccc3o2)C(=O)C1=O | > 100 µM | > 100 µM | > 100 µM | > 100 µM | > 100 µM | > 100 µM | > 100 µM |  |  | 
CC(=O)OCC1OC(n2cnc(C(N)=S)c2N)C(OC(C)=O)C1OC(C)=O (stereo not drawn) |  |  |  |  |  |  |  |  | > 100 µM | 
Cc1ccc(Nc2n[nH]c(=S)s2)cc1C |  |  |  |  |  |  |  |  | > 100 µM | 
CP1(=O)CCCCC1 | > 100 µM | > 100 µM | > 100 µM | > 100 µM | > 100 µM |  | > 100 µM | > 100 µM |  | 
O=[N+]([O-])c1cc(C(F)(F)F)cc([N+](=O)[O-])c1CCl | 4.65 µM | 2.62 µM | 8.72 µM | 0.639 µM | 3.64 µM | 10.4 µM | 10.6 µM |  |  | 
COc1cc(OC(=O)c2ccccc2)cc2c1C(=O)C=CC2=O | 35.5 µM | 40.5 µM | > 100 µM | 25.5 µM | 25.9 µM | 41.5 µM | 41.4 µM | 31.4 µM | 18.8 µM | 
